# How the values were obtained:
# [1] = biological target: T1, human GST-CLK1 (Homo sapiens, UniProt P49759); test: GST-CLK1 enzyme inhibition, ADP-Glo kinase assay; type: biochemical; settings: ATP 10 μM, GST-CLK1 129-end
# T1 construct: purified human GST-CLK1 (129-end, SignalChem) enzyme; purchased SignalChem
# In short: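 ADP-Glo luminescence read-out, relative to untreated solvent control, gave IC50 (nM) from triplicate data sets. Reactions ran an hour at 25° C with 3 ng GST-CLK1 (residues 129-end), 10 μM ATP and specific substrate in Tris-HCl pH 7.4 buffer with MgCl2, BSA and DTT.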
# [2] = biological target: T2, human GST-DYRK1A (Homo sapiens, UniProt Q13627); test: GST-DYRK1A enzyme inhibition, ADP-Glo kinase assay; type: biochemical; settings: ATP 10 μM, GST-DYRK1A full length, read-out: DYRK1 IC50
# T2 construct: purified human GST-DYRK1A (full length, Thermo Scientifics) enzyme; purchased Thermo Scientifics
# In short: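 Full-length enzyme (10 ng) was incubated with 10 μM ATP and a specific substrate for 1 h at 25 °C in 40 mM Tris-HCl pH 7.4, 20 mM MgCl2, 0.5 mg/mL BSA, 50 μM DTT. Luminescence was read against a solvent control, and IC50 values were derived from 3 data sets.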
# T1 sequence (P49759 129-484 limits assumed): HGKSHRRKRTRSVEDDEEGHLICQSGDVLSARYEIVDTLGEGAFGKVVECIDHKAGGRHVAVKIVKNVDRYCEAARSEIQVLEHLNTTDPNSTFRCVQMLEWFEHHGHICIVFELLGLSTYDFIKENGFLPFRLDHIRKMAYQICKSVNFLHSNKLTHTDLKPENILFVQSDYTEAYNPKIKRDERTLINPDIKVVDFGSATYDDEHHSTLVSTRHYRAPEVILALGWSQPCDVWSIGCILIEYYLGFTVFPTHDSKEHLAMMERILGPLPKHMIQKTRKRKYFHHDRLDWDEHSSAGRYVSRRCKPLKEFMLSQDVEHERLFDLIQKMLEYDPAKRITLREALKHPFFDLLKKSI
Compound,IC50 [1] [nM],IC50 [2] [nM]
"N#Cc1c[nH]c2nc(Nc3ccc(C(=O)N4CCN(C5COC5)CC4)c4c3OCCO4)nc(NC3CC3)c12 [Example 287, 4-(cyclo-propylamino)-2-((8-(4-(oxetan-3-yl)piperazine-1-carbonyl)-2,3-dihydrobenzo[b] [1,4]dioxin-5-yl)amino)-7H-pyrrolo[2,3-d]pyrimidine-5-carbonitrile]",< 100,301 to 1000
"COc1cc(P2(=O)CCN(C3CC3)CC2)ccc1Nc1nc(NCC(C)C)c2c(C#N)c[nH]c2n1 [Example 290, 2-((4-(1-cyclopropyl-4-oxido-1,4-azaphosphinan-4-yl)-2-methoxyphenyl)a-mino)-4-(isobutylamino)-7H-pyrrolo[2,3-d]pyrimidine-5-carbonitrile]",301 to 1000,301 to 1000
"COc1cc(P2(=O)CCN(C3COC3)CC2)ccc1Nc1nc(NCC(C)C)c2c(C#N)c[nH]c2n1 [Example 291, 4-(isobutyl-amino)-2-((2-methoxy-4-(1-(oxetan-3-yl)-4-oxido-1,4-azaphosphinan-4-yl)phenyl)amino)-7H-pyrrolo[2,3-d]pyrimidine-5-carbonitrile]",101 to 300,301 to 1000
"COc1cc(P2(=O)CCN(C3CC3)CC2)ccc1Nc1nc(NC(C)C)c2c(C#N)c[nH]c2n1 [Example 292, 2-((4-(1-cyclopropyl-4-oxido-1,4-azaphosphinan-4-yl)-2-methoxyphenyl)a-mino)-4-(isopropylamino)-7H-pyrrolo[2,3-d]pyrimidine-5-carbonitrile]",< 100,301 to 1000
"COc1cc(P2(=O)CCN(C3COC3)CC2)ccc1Nc1nc(NC(C)C)c2c(C#N)c[nH]c2n1 [Example 293, 4-(isopropylamino)-2-((2-methoxy-4-(1-(oxetan-3-yl)-4-oxido-1,4-azaphosphinan-4-yl)phenyl)amino)-7H-pyrrolo[2,3-d]pyrimidine-5-carbonitrile]",< 100,101 to 300
"CC[C@@H](C)Nc1nc(Nc2ccc(P3(=O)CCN(C4CC4)CC3)cc2OC)nc2[nH]cc(C#N)c12 [Example 294, (R)-4-(sec-butylamino)-2-((4-(1-cyclopropyl-4-oxido-1,4-azaphosphinan-4-yl)-2-methoxyphenyl)a-mino)-7H-pyrrolo[2,3-d]pyrimidine-5-carbonitrile]",< 100,301 to 1000
"CC[C@@H](C)Nc1nc(Nc2ccc(P3(=O)CCN(C4COC4)CC3)cc2OC)nc2[nH]cc(C#N)c12 [Example 295, (R)-4-(sec-butylamino)-2-((2-methoxy-4-(1-(oxetan-3-yl)-4-oxido-1,4-azaphosphinan-4-yl)phenyl)amino)-7H-pyrrolo[2,3-d]pyrimidine-5-carbonitrile]",< 100,301 to 1000
"CC[C@H](C)Nc1nc(Nc2ccc(P3(=O)CCN(C4CC4)CC3)cc2OC)nc2[nH]cc(C#N)c12 [Example 296, (S)-4-(sec-butylamino)-2-((4-(1-cyclopropyl-4-oxido-1,4-azaphosphinan-4-yl)-2-methoxyphenyl)a-mino)-7H-pyrrolo[2,3-d]pyrimidine-5-carbonitrile]",301 to 1000,301 to 1000
"CC[C@H](C)Nc1nc(Nc2ccc(P3(=O)CCN(C4COC4)CC3)cc2OC)nc2[nH]cc(C#N)c12 [Example 297, (S)-4-(sec-butylamino)-2-((2-methoxy-4-(1-(oxetan-3-yl)-4-oxido-1,4-azaphosphinan-4-yl)phenyl)amino)-7H-pyrrolo[2,3-d]pyrimidine-5-carbonitrile]",101 to 300,301 to 1000
"COc1cc(P2(=O)CCN(C3CC3)CC2)ccc1Nc1nc(N[C@@H]2CCOC2)c2c(C#N)c[nH]c2n1 [Example 298, (R)-2-((4-(1-cyclopropyl-4-oxido-1,4-azaphosphinan-4-yl)-2-methoxyphenyl)a-mino)-4-((tetrahydrofuran-3-yl)amino)-7H-pyrrolo[2,3-d]pyrimidine-5-carbonitrile]",301 to 1000,301 to 1000
"COc1cc(P2(=O)CCN(C3COC3)CC2)ccc1Nc1nc(N[C@@H]2CCOC2)c2c(C#N)c[nH]c2n1 [Example 299, (R)-2-((2-methoxy-4-(1-(oxetan-3-yl)-4-oxido-1,4-azaphosphinan-4-yl)phenyl)amino)-4-((tetrahydrofuran-3-yl)amino)-7H-pyrrolo[2,3-d]pyrimidine-5-carbonitrile]",101 to 300,301 to 1000
"COc1cc(P2(=O)CCN(C3CC3)CC2)ccc1Nc1nc(N[C@H]2CCOC2)c2c(C#N)c[nH]c2n1 [Example 300, (S)-2-((4-(1-cyclopropyl-4-oxido-1,4-azaphosphinan-4-yl)-2-methoxyphenyl)a-mino)-4-((tetrahydrofuran-3-yl)amino)-7H-pyrrolo[2,3-d]pyrimidine-5-carbonitrile]",< 100,301 to 1000
"COc1cc(P2(=O)CCN(C3COC3)CC2)ccc1Nc1nc(N[C@H]2CCOC2)c2c(C#N)c[nH]c2n1 [Example 301, (S)-2-((2-methoxy-4-(1-(oxetan-3-yl)-4-oxido-1,4-azaphosphinan-4-yl)phenyl)amino)-4-((tetrahydrofuran-3-yl)amino)-7H-pyrrolo[2,3-d]pyrimidine-5-carbonitrile]",< 100,301 to 1000
"COc1cc(P2(=O)CCN(C3CC3)CC2)ccc1Nc1nc(NC2CCOCC2)c2c(C#N)c[nH]c2n1 [Example 302, 2-((4-(1-cyclopropyl-4-oxido-1,4-azaphosphinan-4-yl)-2-methoxyphenyl)a-mino)-4-((tetrahydro-2H-pyran-4-yl)amino)-7H-pyrrolo[2,3-d]pyrimidine-5-carbonitrile]",301 to 1000,301 to 1000
"COc1cc(P2(=O)CCN(C3COC3)CC2)ccc1Nc1nc(NC2CCOCC2)c2c(C#N)c[nH]c2n1 [Example 303, 2-((2-methoxy-4-(1-(oxetan-3-yl)-4-oxido-1,4-azaphosphinan-4-yl)phenyl)amino)-4-((tetrahydro-2H-pyran-4-yl)amino)-7H-pyrrolo[2,3-d]pyrimidine-5-carbonitrile]",301 to 1000,301 to 1000
"COc1cc(P2(=O)CCN(C3CC3)CC2)ccc1Nc1nc(NCC2CC2)c2c(C#N)c[nH]c2n1 [Example 304, 2-((4-(1-cyclopropyl-4-oxido-1,4-azaphosphinan-4-yl)-2-methoxyphenyl)a-mino)-4-((cyclo-propylmeth-yl)amino)-7H-pyrrolo[2,3-d]pyrimidine-5-carbonitrile]",301 to 1000,301 to 1000
"COc1cc(P2(=O)CCN(C3COC3)CC2)ccc1Nc1nc(NCC2CC2)c2c(C#N)c[nH]c2n1 [Example 305, 4-((cyclo-propylmeth-yl)amino)-2-((2-methoxy-4-(1-(oxetan-3-yl)-4-oxido-1,4-azaphosphinan-4-yl)phenyl)amino)-7H-pyrrolo[2,3-d]pyrimidine-5-carbonitrile]",< 100,101 to 300
"COc1cc(P2(=O)CCN(C3CC3)CC2)ccc1Nc1nc(NCC2CCC2)c2c(C#N)c[nH]c2n1 [Example 306, 4-((cyclo-butylmethyl)amino)-2-((4-(1-cyclopropyl-4-oxido-1,4-azaphosphinan-4-yl)-2-methoxyphenyl)a-mino)-7H-pyrrolo[2,3-d]pyrimidine-5-carbonitrile]",301 to 1000,301 to 1000
"COc1cc(P2(=O)CCN(C3COC3)CC2)ccc1Nc1nc(NCC2CCC2)c2c(C#N)c[nH]c2n1 [Example 307, 4-((cyclo-butylmethyl)amino)-2-((2-methoxy-4-(1-(oxetan-3-yl)-4-oxido-1,4-azaphosphinan-4-yl)phenyl)amino)-7H-pyrrolo[2,3-d]pyrimidine-5-carbonitrile]",101 to 300,301 to 1000
"COc1cc(P2(=O)CCN(C3CC3)CC2)ccc1Nc1nc(NCC2CCCC2)c2c(C#N)c[nH]c2n1 [Example 308, 4-((cyclo-pentylmeth-yl)amino)-2-((4-(1-cyclopropyl-4-oxido-1,4-azaphosphinan-4-yl)-2-methoxyphenyl)a-mino)-7H-pyrrolo[2,3-d]pyrimidine-5-carbonitrile]",301 to 1000,301 to 1000
"COc1cc(P2(=O)CCN(C3COC3)CC2)ccc1Nc1nc(NCC2CCCC2)c2c(C#N)c[nH]c2n1 [Example 309, 4-((cyclo-pentylmeth-yl)amino)-2-((2-methoxy-4-(1-(oxetan-3-yl)-4-oxido-1,4-azaphosphinan-4-yl)phenyl)amino)-7H-pyrrolo[2,3-d]pyrimidine-5-carbonitrile]",301 to 1000,301 to 1000
"COc1cc(P2(=O)CCN(C3CC3)CC2)ccc1Nc1nc(NCCS(C)(=O)=O)c2c(C#N)c[nH]c2n1 [Example 310, 2-((4-(1-cycloproopyl-4-oxido-1,4-azaphosphinan-4-yl)-2-methoxyphenyl)a-mino)-4-((2-(methylsulfonyl)ethyl)amino)-7H-pyrrolo[2,3-d]pyrimidine-5-carbonitrile]",101 to 300,301 to 1000
"COc1cc(P2(=O)CCN(C3COC3)CC2)ccc1Nc1nc(NC2COC2)c2c(C#N)c[nH]c2n1 [Example 311, 2-((2-methoxy-4-(1-(oxetan-3-yl)-4-oxido-1,4-azaphosphinan-4-yl)phenyl)amino)-4-(oxetan-3-ylamino)-7H-pyrrolo[2,3-d]pyrimidine-5-carbonitrile]",301 to 1000,301 to 1000
"COCCNc1nc(Nc2ccc(P3(=O)CCN(C4COC4)CC3)cc2OC)nc2[nH]cc(C#N)c12 [Example 312, 2-((2-methoxy-4-(1-(oxetan-3-yl)-4-oxido-1,4-azaphosphinan-4-yl)phenyl)amino)-4-((2-methoxyethyl)amino)-7H-pyrrolo[2,3-d]pyrimidine-5-carbonitrile]",< 100,101 to 300

# Reference: patent US20230066011A1, “PYRROLOPYRIMIDINE DERIVATIVE, AND PHARMACEUTICAL COMPOSITION FOR PREVENTING OR TREATING PROTEIN KINASE-RELATED DISEASE COMPRISING SAME AS ACTIVE INGREDIENT” (VORONOI CO., LTD., priority 2019, published 2023)
